This is an account of results in patent publication US20140227173A1, “CANCER TREATMENT WITH GAMMA-SECRETASE INHIBITORS” (The Johns Hopkins University, priority 2006, published 2014).

In this test the test system is Hes1, a Notch pathway target gene. As to the kind of experiment: Hes1 protein expression in GBM neurosphere cells. The class given is cell-based. The method, then:
(A, B) CD133 is expressed in GBM neurosphere line HSR-GBM1a. (C) The total cell number was decreased upon GSI-18 treatment for 48 h in this line and in the subclones of the line. […] (E) Protein expression of Hes1, a Notch pathway target gene, was reduced upon GSI-18 treatment in GBM neurosphere cells.

As to `O=S(=O)(NC1C2CCC1Cc1ccccc1C2)c1cccs1` (stereo not drawn) [GSI-18, [11-endo]-N-(5,6,7,8,9,10-hexahydro-6,9-methanobenzo[α][8]annulen-11-yl)-thiophene-2-sulfonamide], the “protein expression of Hes1” value is listed as “reduced”.
